Measurements: ChEMBL document CHEMBL1201862, “PubChem BioAssay data set” (2004)
Calls of active or inactive are those of the source.

Columns and labels:
[1] = system: Streptococcus sp. 'group A'; assay: growth inhibition of control SK(-) GAS strain, dose response, counter-screen for streptokinase expression inhibitor project, luminescence, kanamycin, BacTiterGlo, confirmation (AID 1900); format: functional, organism-based
Streptococcus = assay: Group A Streptococcus viability loss, dose response, counter-screen for streptokinase expression inhibitor project, luminescence, BacTiterGlo (AID 1915); format: functional, organism-based;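 also: potency for reduction of bacterial viability or growth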
Coagulation factor XII = target: T1, Coagulation factor XII (Homo sapiens, UniProt P00748); assay: Factor XIIa Dose Response Confirmation from Single Well HTS. [Related pubchem assays (depositor defined):AID701]; format: functional
T1 sequence (P00748 whole entry): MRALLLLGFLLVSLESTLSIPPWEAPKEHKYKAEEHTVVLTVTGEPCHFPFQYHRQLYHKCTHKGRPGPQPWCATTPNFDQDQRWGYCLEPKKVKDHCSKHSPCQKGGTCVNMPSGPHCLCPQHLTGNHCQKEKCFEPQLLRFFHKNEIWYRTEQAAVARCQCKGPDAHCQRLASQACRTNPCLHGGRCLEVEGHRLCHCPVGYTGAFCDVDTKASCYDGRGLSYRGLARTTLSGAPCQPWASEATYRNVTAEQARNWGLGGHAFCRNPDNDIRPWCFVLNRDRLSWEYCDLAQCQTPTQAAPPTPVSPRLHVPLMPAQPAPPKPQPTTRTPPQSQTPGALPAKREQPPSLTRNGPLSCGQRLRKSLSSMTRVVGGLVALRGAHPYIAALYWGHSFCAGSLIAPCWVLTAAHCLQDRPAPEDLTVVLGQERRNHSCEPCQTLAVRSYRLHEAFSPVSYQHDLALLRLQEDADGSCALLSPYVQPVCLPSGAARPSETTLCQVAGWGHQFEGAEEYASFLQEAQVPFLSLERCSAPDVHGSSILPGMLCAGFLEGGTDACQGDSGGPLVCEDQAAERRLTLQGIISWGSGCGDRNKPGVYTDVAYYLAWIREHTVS

Protein Tat = target: T2, Protein Tat (Human immunodeficiency virus type 1 group M subtype B (isolate HXB2)(HIV-1), UniProt P04608); format: functional;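 also: tat binding to TAR RNA read out by fluorescence polarization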
T2 sequence (P04608 whole entry): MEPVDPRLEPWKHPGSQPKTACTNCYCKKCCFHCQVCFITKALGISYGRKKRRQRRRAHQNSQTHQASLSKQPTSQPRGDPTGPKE

[2] = target: T3, Type-1 angiotensin II receptor (Homo sapiens, UniProt P30556); assay: AT1 receptor agonists, dose response, selectivity assay for APJ receptor agonist project, cell-based, uHTS hits (AID 488865); format: functional;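 also: beta-arrestin recruitment to AT1 measured by enzyme fragment complementation luminescence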
T3 sequence (P30556 whole entry): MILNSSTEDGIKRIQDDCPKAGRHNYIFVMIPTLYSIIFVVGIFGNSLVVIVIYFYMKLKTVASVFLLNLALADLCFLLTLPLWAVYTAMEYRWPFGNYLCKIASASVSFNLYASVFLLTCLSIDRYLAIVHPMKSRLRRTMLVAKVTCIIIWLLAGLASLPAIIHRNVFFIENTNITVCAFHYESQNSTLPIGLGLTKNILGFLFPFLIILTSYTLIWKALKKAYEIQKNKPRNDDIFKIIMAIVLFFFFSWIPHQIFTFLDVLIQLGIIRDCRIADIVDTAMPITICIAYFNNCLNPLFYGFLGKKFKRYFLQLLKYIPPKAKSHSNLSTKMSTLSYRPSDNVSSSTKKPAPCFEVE

Hexokinase HKDC1 = target: T4, Hexokinase HKDC1 (Homo sapiens, UniProt Q2TB90); assay: HKDC1 hexokinase activators, dose response, biochemical, W721R variant (AID 504730); format: functional
T4 sequence (Q2TB90 whole entry): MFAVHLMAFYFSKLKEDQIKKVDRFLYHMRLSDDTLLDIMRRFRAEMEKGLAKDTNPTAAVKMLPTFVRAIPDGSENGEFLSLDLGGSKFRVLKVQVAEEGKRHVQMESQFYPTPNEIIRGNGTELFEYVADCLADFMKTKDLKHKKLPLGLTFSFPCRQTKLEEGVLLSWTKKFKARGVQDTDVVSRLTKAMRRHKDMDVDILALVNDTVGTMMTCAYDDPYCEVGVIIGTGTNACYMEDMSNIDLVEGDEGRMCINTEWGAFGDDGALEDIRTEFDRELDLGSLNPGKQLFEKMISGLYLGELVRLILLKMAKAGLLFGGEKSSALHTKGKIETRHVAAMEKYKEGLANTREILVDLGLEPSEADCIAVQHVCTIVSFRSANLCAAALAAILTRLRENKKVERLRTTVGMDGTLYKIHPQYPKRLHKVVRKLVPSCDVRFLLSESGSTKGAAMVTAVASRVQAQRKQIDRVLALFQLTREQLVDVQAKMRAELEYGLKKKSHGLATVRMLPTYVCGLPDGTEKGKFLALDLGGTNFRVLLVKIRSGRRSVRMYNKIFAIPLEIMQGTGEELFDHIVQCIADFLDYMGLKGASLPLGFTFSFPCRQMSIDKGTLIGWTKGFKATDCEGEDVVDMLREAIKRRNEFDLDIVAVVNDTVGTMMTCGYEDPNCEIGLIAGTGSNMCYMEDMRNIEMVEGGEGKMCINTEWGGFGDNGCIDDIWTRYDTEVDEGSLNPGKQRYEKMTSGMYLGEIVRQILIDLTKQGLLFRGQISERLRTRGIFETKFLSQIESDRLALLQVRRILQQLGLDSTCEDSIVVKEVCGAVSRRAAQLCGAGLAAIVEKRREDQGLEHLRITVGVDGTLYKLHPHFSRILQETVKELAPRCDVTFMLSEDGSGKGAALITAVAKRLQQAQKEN

Hexokinase-1 = Hexokinase-1 (Homo sapiens, UniProt P19367); assay: hexokinase 1 activators, dose response, selectivity assay for HKDC1 activator project, biochemical (AID 504762); format: functional
Chain of Hexokinase-1 (P19367 whole entry): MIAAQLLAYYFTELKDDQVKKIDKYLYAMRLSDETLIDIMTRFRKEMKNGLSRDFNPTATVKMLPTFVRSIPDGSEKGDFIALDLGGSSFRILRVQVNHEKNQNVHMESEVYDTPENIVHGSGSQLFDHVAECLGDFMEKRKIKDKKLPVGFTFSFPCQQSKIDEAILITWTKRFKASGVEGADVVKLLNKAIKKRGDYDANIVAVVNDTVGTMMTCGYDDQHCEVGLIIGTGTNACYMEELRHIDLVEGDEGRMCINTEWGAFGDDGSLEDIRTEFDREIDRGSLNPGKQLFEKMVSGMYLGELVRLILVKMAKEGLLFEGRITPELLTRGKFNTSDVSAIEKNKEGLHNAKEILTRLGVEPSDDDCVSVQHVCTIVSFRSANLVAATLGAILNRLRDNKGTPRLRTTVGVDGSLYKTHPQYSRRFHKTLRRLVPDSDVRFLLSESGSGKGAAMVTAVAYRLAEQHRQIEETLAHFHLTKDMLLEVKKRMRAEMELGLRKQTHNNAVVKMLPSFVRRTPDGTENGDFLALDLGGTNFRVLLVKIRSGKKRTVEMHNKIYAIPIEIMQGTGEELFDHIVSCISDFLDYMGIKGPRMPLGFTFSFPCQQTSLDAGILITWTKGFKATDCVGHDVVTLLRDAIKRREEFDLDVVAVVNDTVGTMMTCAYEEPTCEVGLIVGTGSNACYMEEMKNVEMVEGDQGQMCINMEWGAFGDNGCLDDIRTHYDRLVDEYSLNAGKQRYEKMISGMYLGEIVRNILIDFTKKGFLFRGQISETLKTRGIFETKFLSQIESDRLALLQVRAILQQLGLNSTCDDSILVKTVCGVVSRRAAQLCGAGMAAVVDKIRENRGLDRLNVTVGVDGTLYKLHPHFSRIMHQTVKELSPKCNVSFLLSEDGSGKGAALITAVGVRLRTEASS

[3] = target: T5, G-protein coupled receptor 35 (Homo sapiens, UniProt Q9HC97); assay: SAR analysis of Antagonists of the GPR35 Receptor using an Image-Based Assay - Set 3. [Related pubchem assays (depositor defined):AID2013, AID2026]; format: functional
T5 sequence (Q9HC97 whole entry): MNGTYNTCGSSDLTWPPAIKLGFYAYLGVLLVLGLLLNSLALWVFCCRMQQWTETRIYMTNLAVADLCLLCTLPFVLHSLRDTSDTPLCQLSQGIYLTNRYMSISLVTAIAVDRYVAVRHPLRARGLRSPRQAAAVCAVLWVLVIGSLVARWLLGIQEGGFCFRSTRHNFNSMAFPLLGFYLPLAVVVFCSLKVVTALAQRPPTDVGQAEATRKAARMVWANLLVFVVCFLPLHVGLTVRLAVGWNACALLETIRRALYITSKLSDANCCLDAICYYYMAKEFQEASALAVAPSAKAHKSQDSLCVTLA

Cannabinoid receptor 2 [4] = target: T6, Cannabinoid receptor 2 (Homo sapiens, UniProt P34972); assay: SAR analysis of antagonists of the Cannabinoid Receptor 2 using an Image-Based Assay. [Related pubchem assays (depositor defined):AID2013, AID2026]; format: functional
T6 sequence (P34972 whole entry): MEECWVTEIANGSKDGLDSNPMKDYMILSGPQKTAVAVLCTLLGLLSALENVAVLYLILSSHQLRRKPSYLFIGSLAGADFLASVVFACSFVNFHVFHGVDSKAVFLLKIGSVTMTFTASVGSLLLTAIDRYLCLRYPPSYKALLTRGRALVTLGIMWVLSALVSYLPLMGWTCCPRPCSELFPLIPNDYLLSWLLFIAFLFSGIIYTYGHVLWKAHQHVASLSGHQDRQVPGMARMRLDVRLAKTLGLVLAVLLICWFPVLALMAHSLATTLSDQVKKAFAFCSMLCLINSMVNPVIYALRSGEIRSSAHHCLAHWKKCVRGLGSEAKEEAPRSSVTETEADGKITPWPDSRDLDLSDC

[5] = target: T7, G-protein coupled receptor 55 (Homo sapiens, UniProt Q9Y2T6); assay: GPR55 antagonist potency of analogs, SAR follow-up, imaging, U2OS, beta-arrestin-GFP, LPI agonist, set 2 (AID 2820); format: functional
T7 sequence (Q9Y2T6 whole entry): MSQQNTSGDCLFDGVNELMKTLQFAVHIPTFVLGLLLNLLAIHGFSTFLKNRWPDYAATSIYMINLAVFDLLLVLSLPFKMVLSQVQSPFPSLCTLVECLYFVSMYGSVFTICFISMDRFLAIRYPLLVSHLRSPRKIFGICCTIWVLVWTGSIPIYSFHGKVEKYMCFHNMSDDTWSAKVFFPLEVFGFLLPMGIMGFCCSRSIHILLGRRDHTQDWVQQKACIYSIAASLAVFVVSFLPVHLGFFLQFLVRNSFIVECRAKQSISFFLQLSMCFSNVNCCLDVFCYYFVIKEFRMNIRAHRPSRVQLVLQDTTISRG

Cannabinoid receptor 2 [6] = target: T6, Cannabinoid receptor 2; assay: SAR analysis of agonists of the Cannabinoid Receptor 2 using an Image-Based Assay. [Related pubchem assays (depositor defined):AID2013, AID2026]; format: functional
[7] = target: T7, G-protein coupled receptor 55; assay: GPR55 antagonists blocking LPI-driven arrestin recruitment, primary screen, imaging, U2OS, beta-arrestin-GFP, LPI agonist (AID 2013); format: functional;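 also: antagonist potency measured as reduced agonist-driven arrestin aggregation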
[8] = target: T5, G-protein coupled receptor 35; assay: SAR analysis of Agonists of the GPR35 Receptor using an Image-Based Assay - Set 2. [Related pubchem assays (depositor defined):AID2013, AID2026]; format: functional
Cannabinoid receptor 1 [9] = target: T8, Cannabinoid receptor 1 (Homo sapiens, UniProt P21554); assay: SAR analysis of agonists of the Cannabinoid Receptor 1 using an Image-Based Assay - Set 2. [Related pubchem assays (depositor defined):AID2013, AID2026]; format: functional
T8 sequence (P21554 whole entry): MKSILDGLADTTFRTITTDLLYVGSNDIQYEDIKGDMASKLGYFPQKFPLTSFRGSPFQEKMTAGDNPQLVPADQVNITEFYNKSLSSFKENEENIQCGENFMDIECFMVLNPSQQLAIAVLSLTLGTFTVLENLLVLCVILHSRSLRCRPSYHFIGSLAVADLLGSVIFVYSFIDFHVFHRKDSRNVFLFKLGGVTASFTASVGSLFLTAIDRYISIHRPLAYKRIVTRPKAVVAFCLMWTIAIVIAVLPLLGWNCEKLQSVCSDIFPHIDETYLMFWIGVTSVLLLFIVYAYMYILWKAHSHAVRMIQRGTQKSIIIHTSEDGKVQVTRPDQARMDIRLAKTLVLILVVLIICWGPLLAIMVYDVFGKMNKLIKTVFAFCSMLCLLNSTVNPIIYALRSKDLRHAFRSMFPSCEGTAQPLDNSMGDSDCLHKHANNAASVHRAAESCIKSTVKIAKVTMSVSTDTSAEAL

Cannabinoid receptor 1 [10] = target: T8, Cannabinoid receptor 1; assay: SAR analysis of antagonists of the Cannabinoid Receptor 1 using an Image-Based Assay - Set 2. [Related pubchem assays (depositor defined):AID2013, AID2026]; format: functional
[11] = target: T9, Carboxy-terminal domain RNA polymerase II polypeptide A small phosphatase 1 (Homo sapiens, UniProt Q9GZU7); assay: inhibitors of CTDSP1, concentration-response testing, biochemical assay, absorbance-based, actives from ultra-high-throughput screening (AID 540297); format: functional
T9 sequence (Q9GZU7 whole entry): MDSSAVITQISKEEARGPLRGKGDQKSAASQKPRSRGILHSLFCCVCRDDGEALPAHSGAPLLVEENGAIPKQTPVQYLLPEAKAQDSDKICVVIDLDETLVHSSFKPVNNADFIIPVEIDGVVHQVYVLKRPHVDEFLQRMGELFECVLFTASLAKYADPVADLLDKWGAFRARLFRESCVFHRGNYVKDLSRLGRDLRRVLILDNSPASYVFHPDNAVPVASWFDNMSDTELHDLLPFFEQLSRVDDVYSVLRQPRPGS

SUMO-activating enzyme [12] = target: T10, SUMO-activating enzyme (Homo sapiens, UniProt Q9UBT2); assay: inhibitors of in vitro SUMOylation cascade, primary screen, biochemical, HTRF, uHTS (AID 2006); format: protein-complex assay
T10 sequence (Q9UBE0 whole entry): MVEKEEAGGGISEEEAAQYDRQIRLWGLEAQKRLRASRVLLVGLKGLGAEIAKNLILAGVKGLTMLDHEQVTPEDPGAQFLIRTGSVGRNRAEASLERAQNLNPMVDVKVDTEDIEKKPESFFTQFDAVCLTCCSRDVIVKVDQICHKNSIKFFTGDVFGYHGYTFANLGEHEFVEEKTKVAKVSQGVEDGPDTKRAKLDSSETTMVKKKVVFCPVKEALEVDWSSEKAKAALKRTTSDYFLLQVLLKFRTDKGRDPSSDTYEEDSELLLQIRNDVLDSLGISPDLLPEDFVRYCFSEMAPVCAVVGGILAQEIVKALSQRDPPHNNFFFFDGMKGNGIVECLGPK
T10 sequence (Q9UBT2 whole entry): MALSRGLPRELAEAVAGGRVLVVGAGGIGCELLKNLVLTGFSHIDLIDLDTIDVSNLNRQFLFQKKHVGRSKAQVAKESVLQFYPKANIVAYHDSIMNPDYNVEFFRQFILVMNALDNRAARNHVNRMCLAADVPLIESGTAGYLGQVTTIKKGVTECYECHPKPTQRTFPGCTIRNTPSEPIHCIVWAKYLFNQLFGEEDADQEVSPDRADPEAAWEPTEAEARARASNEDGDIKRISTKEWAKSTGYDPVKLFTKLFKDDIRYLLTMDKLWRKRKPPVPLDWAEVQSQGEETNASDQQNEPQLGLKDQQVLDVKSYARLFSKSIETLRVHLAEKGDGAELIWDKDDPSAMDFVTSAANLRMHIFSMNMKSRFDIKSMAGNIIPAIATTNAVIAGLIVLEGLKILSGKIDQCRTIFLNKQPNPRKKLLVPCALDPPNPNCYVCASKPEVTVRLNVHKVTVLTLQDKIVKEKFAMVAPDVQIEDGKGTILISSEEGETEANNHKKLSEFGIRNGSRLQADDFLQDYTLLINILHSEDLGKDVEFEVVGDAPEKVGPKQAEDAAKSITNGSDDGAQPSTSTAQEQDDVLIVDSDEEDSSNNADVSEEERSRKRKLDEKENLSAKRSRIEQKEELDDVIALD

[13] = growth suppression of beta-catenin-knockout colon cells, dose response, cell-based, HCT116, human colon tumor (AID 1045); format: functional;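 also: HCT116 colon tumor cells with beta catenin knocked out; cells exposed to compound for 60 hours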
SUMO-activating enzyme [14] = target: T10, SUMO-activating enzyme; assay: SUMOylation inhibitor hit validation, confirmation, SUMOylation inhibitor project, biochemical, AlphaScreen (AID 2018); format: functional
[15] = growth suppression of PTEN-null colon cells, dose response, cell-based, HCT116 PTEN knockout (AID 1047); format: functional;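 also: HCT116 colon tumor cells with PTEN knocked out; cells exposed to compound for 60 hours before readout; potency for loss of cell viability measured by luminescence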
Streptokinase A = target: T11, Streptokinase A (Streptococcus pyogenes serotype M1, UniProt P10520); assay: S. pyogenes streptokinase expression inhibitors, potency, dose response, plasminogen activation absorbance, OD405 (AID 1914); format: functional, Streptococcus pyogenes M1 GAS;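 also: secreted streptokinase activity via plasminogen activation per viability signal from cell pellet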
T11 sequence (P10520 whole entry): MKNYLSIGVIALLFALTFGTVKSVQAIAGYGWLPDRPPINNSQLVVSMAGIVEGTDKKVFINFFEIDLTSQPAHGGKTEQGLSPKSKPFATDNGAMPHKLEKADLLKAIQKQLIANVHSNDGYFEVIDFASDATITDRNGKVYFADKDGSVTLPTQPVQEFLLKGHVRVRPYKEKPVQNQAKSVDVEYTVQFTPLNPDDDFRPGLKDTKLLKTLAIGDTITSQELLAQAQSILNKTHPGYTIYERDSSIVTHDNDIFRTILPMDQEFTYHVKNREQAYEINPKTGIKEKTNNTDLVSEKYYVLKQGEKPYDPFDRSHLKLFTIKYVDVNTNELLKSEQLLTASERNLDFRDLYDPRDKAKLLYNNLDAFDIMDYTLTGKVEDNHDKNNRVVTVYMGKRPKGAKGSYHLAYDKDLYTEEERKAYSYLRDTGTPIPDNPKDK

[16] = target: T12, Intestinal-type alkaline phosphatase (Homo sapiens, UniProt P09923); assay: human intestinal alkaline phosphatase activators, dose response, biochemical, luminescence, uHTS hits (AID 463120); format: functional
T12 sequence (P09923 whole entry): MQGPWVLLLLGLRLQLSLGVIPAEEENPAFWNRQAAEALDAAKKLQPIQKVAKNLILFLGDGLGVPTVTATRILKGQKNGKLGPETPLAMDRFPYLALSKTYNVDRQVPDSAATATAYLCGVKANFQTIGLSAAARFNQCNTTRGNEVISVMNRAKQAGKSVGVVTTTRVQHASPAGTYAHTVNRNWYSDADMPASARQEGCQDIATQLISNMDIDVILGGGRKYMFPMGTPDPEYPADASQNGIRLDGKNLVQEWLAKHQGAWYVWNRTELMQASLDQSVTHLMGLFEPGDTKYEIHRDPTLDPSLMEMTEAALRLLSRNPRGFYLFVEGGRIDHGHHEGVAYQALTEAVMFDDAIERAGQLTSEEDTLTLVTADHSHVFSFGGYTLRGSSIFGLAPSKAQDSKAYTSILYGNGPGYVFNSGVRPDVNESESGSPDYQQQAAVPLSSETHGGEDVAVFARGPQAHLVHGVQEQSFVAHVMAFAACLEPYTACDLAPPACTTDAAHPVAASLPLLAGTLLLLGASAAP

[17] = target: T12, Intestinal-type alkaline phosphatase; assay: Dose Response confirmation of uHTS hits from a small molecule inhibitors of human intestinal alkaline phosphatase via a luminescent assay. [Related pubchem assays (depositor defined):AID2544, AID2574]; format: functional
[18] = HEp-2 cell cytotoxicity, dose response, cytotoxicity control for RSV inhibitor project, HTS (AID 2410); format: functional; details: human respiratory syncytial virus
[19] = Luminescence Cell-Based Dose Retest to Confirm Inhibitors of Cancer Stem Cells. [Related pubchem assays (depositor defined):AID2717, AID2721]; format: functional; details: Homo sapiens
DLD-1 [20] = assay: reduction of KLF5 protein levels, late-stage follow-up, orthogonal assay for KLF5 inhibitor project, western blot, chemiluminescence, DLD-1 cells, titration (AID 485336); format: functional, cell-based; details: Homo sapiens
DLD-1 [21] = assay: cytotoxicity in DLD-1 colorectal cells, late-stage follow-up, cytotoxicity control for KLF5 inhibitor project, cell-based, luminescence, round 1 (AID 485338); format: functional; details: Homo sapiens
[22] = Luminescence-based counterscreen assay for KLF5 inhibitors: dose response cell-based high throughput screening assay to identify cytotoxic compounds using the IEC-6 intestinal epithelial cell line. [Related pubchem assays: 1700 (Primary screen.), 1834 (Confirmation screen.), 1858 (Summary AID.), 1905 (Counterscreen.)]; format: functional
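For AC50 in this document: cells exposed to compound for roughly 70 hours or longer before luminescence read.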

O=C(Oc1ccc(Cl)c2cccnc12)c1ccco1
EC50 [1]: 3.93 µM (active) | EC50 (Streptococcus): 11.6 µM (active) | IC50 (Coagulation factor XII): 21.6 µM (active)

COc1ccc2[nH]c(=O)c(CN(Cc3ccco3)C(c3nnnn3Cc3ccccc3)C(C)C)cc2c1 (stereo not given)
IC50 (Protein Tat): > 100 µM (active) | EC50 [2]: > 100 µM (inactive)

Cn1c(-c2ccccc2)c(C(=O)CC#N)c2ccccc21
EC50 (Hexokinase HKDC1): 39.2 µM (inactive) | EC50 (Hexokinase-1): 32 µM (inactive)

Cc1cccn2c(=O)c3cc(C(=O)NC4CCCC4)c(=N)n(C4CCCC4)c3nc12
IC50 [3]: > 32 µM (inactive) | IC50 (Cannabinoid receptor 2 [4]): > 32 µM (inactive) | IC50 [5]: 0.965 µM (active) | EC50 (Cannabinoid receptor 2 [6]): > 32 µM (inactive) | IC50 [7]: 1.24 µM (active) | EC50 [8]: > 32 µM (inactive) | EC50 (Cannabinoid receptor 1 [9]): > 32 µM (inactive) | IC50 (Cannabinoid receptor 1 [10]): > 32 µM (inactive)

COc1ccccc1-n1cnc2c(c1=O)c1nc3ccccc3nc1n2-c1ccc(C)c(C)c1
IC50 [11]: 7.53 µM (active) | EC50 [1]: 11.2 µM (active) | IC50 (SUMO-activating enzyme [12]): 15.4 µM (active) | EC50 (Streptococcus): 59 µM (active) | EC50 [13]: 20.2 µM (active) | IC50 (SUMO-activating enzyme [14]): 5.24 µM (active) | EC50 [15]: 19.2 µM (active) | EC50 (Streptokinase A): > 150 µM (not active)

COc1cccc(-c2nc(CS(=O)(=O)CC(=O)Nc3cc(OC)ccc3OC)c(C)o2)c1
EC50 [16]: > 100 µM (inactive) | IC50 [17]: > 100 µM (inactive)

CN(C(=O)COC(=O)/C=C/c1cccc([N+](=O)[O-])c1)C1CCS(=O)(=O)C1 (stereo not given)
CC50 [18]: 11.4 µM (active) | AC50 [19]: 1.43 µM (active) | IC50 (DLD-1 [20]): 2.25 µM (active) | IC50 (DLD-1 [21]): 3.57 µM (active) | IC50 [22]: 32.3 µM (not active)
